Key:
[1] = cited from earlier work
[2] = test system: thyroparathyroidectomised (TPTx) rats; assay: Pharmacodynamic actions in thyroparathyroidectomised (TPTx) rats, 28-days daily subcutaneous injections; format: in vivo, SD rats
Experimental: Quantitative measurements of serum calcium (sCa), urinary calcium and serum phosporous (sP) were performed on a Roche-Hitachi P800 modular biochemistry instrument.
Rats subjected to thyroparathyroidectomy (TPTx) by blunt dissection are unable to produce parathyroid hormone, PTH, the major regulator of calcium homeostasis. […] Additionally, one group of sham operated rats (n=9) representing normophysiological background control were also given vehicle. Serum calcium (sCa) and phosporous (sP) levels in the animals were measured pre- and post-dose on days 1, 6, 12 and 27. Moreover, bone turnover markers (P1NP and CTx) were measured and bone quality assessed by ex vivo pQCT.

PTH(1-84): Natpara®, PTH(1-84), approved by the FDA for hypoparathyroidism; the current standard of care (SEQ ID NO:1)
PTH Cmax ([1]; currently approved doses): 0.3 ng/mL
control of urinary calcium excretion ([1]; daily injections, FDA review): failed to provide adequate control
incidence of hypercalcemia and hypocalcemia compared to placebo ([1]; in vivo): did not improve
trabecular BMD compared to both control groups ([2]; 28 days treatment): significant increase
effect on serum phosphorous (sP) ([2]; TPTx rats, daily sc): minimal decrease
effect on serum calcium (sCa) ([2]; TPTx rats, daily sc, 18 at […], PTH(1-84) at 7.3 nmol/kg/d): did not lead to increase in sCa
serum calcium (sCa) at day 12 ([2]; TPTx rats, 18 at […], PTH(1-84) at 7.3 nmol/kg/d, sc): 8.1 mg/dL
trabecular and cortical BMD in vertebrae ([2]; following 28 days of treatment): anabolic effect

Reference: patent US11793861B2, “PTH prodrugs” (ASCENDIS PHARMA BONE DISEASES A/S, priority 2016, dated 2023)
